Test results from the Deep4Chem optical property database.
One block for each molecule: values may come before it.

Test: solvent given as SMILES
[1] = in O=P(c1ccccc1)(c1ccccc1)c1ccccc1Oc1ccccc1P(=O)(c1ccccc1)c1ccccc1

emission maximum (in ClCCl): 478 nm
Compound: Cc1c(C(=O)c2ccccc2)c2ccc3cccc4c5cccc6ccc1c(c65)c2c34

emission maximum (in ClC(Cl)Cl): 418 nm
Compound: c1cc2ccc3sc4ccc5cccc6c(c1)c2c3c4c56

emission maximum (in CO): 808 nm
Compound: CC1(C)C(/C=C/C2=C(Cl)C(=C/C=C3/N(CCCCCC(=O)O)c4ccccc4C3(C)C)/CCC2)=[N+](CCCCCC(=O)O)c2ccccc21

Compound: Cc1cc(N2c3ccccc3C(C)(C)c3ccccc32)ccc1-c1ncnc(-c2ccc(N3c4ccccc4C(C)(C)c4ccccc43)cc2C)c1C
emission maximum (in Cc1ccccc1): 454 nm
emission maximum [1]: 454 nm

emission maximum (in ClC(Cl)Cl): 424 nm
Compound: c1ccc2c(c1)-c1c(cc3ccc4cccc5ccc1c3c45)C21c2cc(-c3ccc4ccc5cccc6ccc3c4c56)ccc2-c2ccc(-c3ccc4ccc5cccc6ccc3c4c56)cc21

emission maximum (in CC#N): 468 nm
emission maximum (in ClCCl): 469 nm
Compound: COC(=O)c1cc(=O)n(C)c2cc(-c3ccccc3OC)sc12

Compound: CC(C)(C)c1ccc(N(c2ccc(C(C)(C)C)cc2)c2ccc(S(=O)(=O)c3ccc(N(c4ccc(C(C)(C)C)cc4)c4ccc(C(C)(C)C)cc4)cc3)cc2)cc1
emission maximum (in Cc1ccccc1): 419 nm
emission maximum [1]: 430 nm

emission maximum (in ClC(Cl)Cl): 635 nm
Compound: CC1(C)CC[N+]2=c3c(cc4c(c31)Oc1cc3c(cc1C=4c1ccccc1C(=O)O)C(c1ccccc1C(=O)O)=c1cc4c5c(c1O3)C(C)(C)CC[N+]=5CCC4)CCC2

Compound: CCCCC(CC)CN1C(=O)c2cccc3c(C#Cc4ccc(N(c5ccccc5)c5ccc(C#Cc6ccc7c8c(cccc68)C(=O)N(CC(CC)CCCC)C7=O)cc5)cc4)ccc(c23)C1=O (stereo not drawn)
emission maximum (in C1CCCCC1): 472 nm
emission maximum (in C1CCOC1): 631 nm
emission maximum (in CC#N): 549 nm
emission maximum (in Cc1ccccc1): 514 nm
emission maximum (in ClC(Cl)Cl): 587 nm

emission maximum (in CS(C)=O): 826 nm
Compound: CN(C)c1ccc(C2=[N+]3C(=Nc4c(-c5ccc(OCCCCS(=O)(=O)[O-])cc5)cc(-c5ccc(N(C)C)cc5)n4[B-]3(F)F)C(c3ccc(OCCCCS(=O)(=O)[O-])cc3)=C2)cc1

emission maximum (in ClC(Cl)Cl): 581 nm
Compound: N#CC1=CC(/C=C/c2ccccc2)=CC(C#N)=P1(c1ccccc1)c1ccccc1

emission maximum (in C1CCOC1): 480 nm
Compound: C1=C(c2ccccc2)C=C(c2ccccc2)/C1=C/c1ccc2ccc3cccc4ccc1c2c34

emission maximum (in ClCCl): 538 nm
Compound: CCc1cccc(CC)c1-c1c2ccccc2c(C#Cc2ccccc2)c2cc3ccccc3cc12

emission maximum (in ClCCl): 417 nm
Compound: CC(C)(C)c1ccc(-n2c(-c3ccc(-c4cccc(-c5c(-c6ccccc6)nc6ccccn56)c4)cc3)nc3c4ccccc4c4ccccc4c32)cc1

Compound: N#CC(C#N)=C(/C=C/c1cc2c3c(c1)CCCN3CCC2)c1ccc2c3c(cccc13)CC2
emission maximum (in C1CCOC1): 602 nm
emission maximum (in CC#N): 622 nm
emission maximum (in CC(C)=O): 619 nm
emission maximum (in CCOC(C)=O): 600 nm
emission maximum (in CN(C)C=O): 629 nm
emission maximum (in CO): 613 nm
emission maximum (in Cc1ccccc1): 580 nm
emission maximum (in ClC(Cl)Cl): 599 nm

emission maximum (in ClC(Cl)Cl): 463 nm
Compound: Clc1ccc(-c2nc(-c3ccccc3)sc2N(c2ccccc2)c2ccccc2)cc1

emission maximum (in C1CCCCC1): 333 nm
Compound: C[Si](C)(C)c1ccc([Si](C)(C)C)c2ccccc12

Compound: N#Cc1cc(-c2ccc(N3c4ccccc4Oc4ccccc43)cc2)c(-c2ccc(N3c4ccccc4Oc4ccccc43)cc2)cc1C#N
emission maximum (in Cc1ccccc1): 577 nm
emission maximum (in c1cc(-c2cccc(-n3c4ccccc4c4ccccc43)c2)cc(-n2c3ccccc3c3ccccc32)c1): 540 nm

emission maximum (in CS(C)=O): 570 nm
Compound: C[N+]1=C(/C=C/C=C2/N(CCC[N+](C)(C)C)c3ccc(S(=O)(=O)[O-])cc3C2(C)C)C(C)(C)c2ccccc21

emission maximum (in ClCCl): 753 nm
Compound: F[B-]1(F)n2c(-c3ccccc3)c3ccc4ccccc4c3c2N=C2c3c(ccc4ccccc34)C(c3ccccc3)=[N+]21

emission maximum (in CC#N): 496 nm
emission maximum (in CO): 509 nm
Compound: O=C1c2ccccc2-c2c(-c3ccc([N+](=O)[O-])cc3)c(-c3ccc([N+](=O)[O-])cc3)c(-c3ccccc3)c3cccc1c23

emission maximum (in ClC(Cl)Cl): 536 nm
Compound: Cc1cc(=O)oc2cc3c(cc12)c1c2ccccc2c2ccccc2c1c1c2ccccc2c2ccccc2c31

emission maximum (in ClCCl): 467 nm
Compound: C[Si](C)(C)C#Cc1cc(C#C[Si](C)(C)C)c2ccc3c(C(=O)c4ccccc4)cc(C#C[Si](C)(C)C)c4ccc1c2c43

emission maximum (in CCO): 421 nm
Compound: CC(C)Nc1cc2c(cc1F)c(=O)c1cc(F)c(NC(C)C)cc1n2C

emission maximum (in C1COCCO1): 474 nm
Compound: COC(=O)c1ccc(/C=C2\N=C(c3ccc(OC)c(OC)c3)OC2=O)cc1

emission maximum (in CC#N): 430 nm
Compound: FC(F)(F)c1ccc(-c2pc3ccccc3s2)cc1 (stereo not drawn)

emission maximum (in CC#N): 497 nm
emission maximum (in ClCCl): 478 nm
Compound: Cc1cc(O)c(C(=O)/C=C/c2ccc(Cl)cc2)c(=O)o1

emission maximum (in C1CCOC1): 513 nm
Compound: COc1ccc(-c2cc3c(s2)-c2sc(-c4ccc(OC)cc4)cc2P(c2ccccc2)(c2ccccc2)=[O+][B-]3(c2c(C)cc(C)cc2C)c2c(C)cc(C)cc2C)cc1

emission maximum (in C1CCCCC1): 380 nm
Compound: CCC(C)(C)c1ccc2c(c1)C(CCOC)(CCOC)c1cc(-c3ccc(-c4ccc5c(c4)C(CCOC)(CCOC)c4cc(C(C)(C)CC)ccc4-5)cc3)ccc1-2

emission maximum (in ClC(Cl)Cl): 426 nm
Compound: COc1ccc2c(C#N)cc3ccc4cc(C#N)c5ccc(OC)cc5c4c3c2c1

emission maximum (in C1CCCCC1): 463 nm
emission maximum (in CC#N): 507 nm
emission maximum (in CCO): 553 nm
emission maximum (in c1ccccc1): 485 nm
Compound: O=C1c2ccccc2-c2ccccc21

Compound: CCN(CC)c1ccc(-c2ccc(-c3nc(C#N)c4ccccc4n3)s2)cc1
emission maximum (in CC#N): 539 nm
emission maximum (in Cc1ccccc1): 471 nm

emission maximum (in C1CCCCC1): 432 nm
emission maximum (in CC#N): 445 nm
Compound: FC(F)(F)c1ccc(/C=C/c2nc3c(ccc4ccccc43)s2)cc1

emission maximum (in C1COCCO1): 392 nm
emission maximum (in CC#N): 405 nm
emission maximum (in CO): 424 nm
emission maximum (in ClCCl): 402 nm
Compound: CCCCNC(=O)c1nc2c(N(C)C)nc(N(C)C)nc2n1Cc1ccccc1

emission maximum (in ClCCl): 435 nm
Compound: c1ccc(N(c2ccccc2)c2ccc(-c3ccc(-c4nc(-c5ccccn5)n(-c5ccccc5)n4)cc3)cc2)cc1

emission maximum (in CC#N): 629 nm
Compound: CC1=CC(/C=C/c2ccc([N+](C)(C)C)cc2)=[N+]2C1=C(c1ccc(C#CCO[C@@H]3O[C@H](CO)[C@@H](O)C(O)[C@H]3O)cc1)c1c(C)cc(/C=C/c3ccc([N+](C)(C)C)cc3)n1[B-]2(F)F (stereo partly drawn)

Compound: CC(C)(C)c1ccc2c(c1)c1cc(C(C)(C)C)ccc1n2-c1ccc(-n2c3ccc(C(C)(C)C)cc3c3cc(C(C)(C)C)ccc32)c(C(=O)c2ccncc2)c1
emission maximum (in C1CCOC1): 519.49 nm
emission maximum (in CCCCCC): 476.84 nm
emission maximum (in Cc1ccccc1): 508 nm
emission maximum (in ClCCl): 561.4 nm

emission maximum (in ClCCl): 338 nm
Compound: Cc1cc2cc(C)c3c4ccccc4[nH]c3c2o1

emission maximum (in ClCCl): 609 nm
Compound: COc1ccc(C2=C(c3ccc(OC)cc3)c3cccc4c5c(cc(c34)O2)=NC2C=C(Br)C(Br)=CC2N=5)cc1 (stereo not drawn)

Compound: c1ccc2c(c1)[nH]c1cccnc12
emission maximum (in C1CCCCC1): 341 nm
emission maximum (in C1CCOC1): 352 nm
emission maximum (in C1COCCO1): 367 nm
emission maximum (in CCO): 385 nm
emission maximum (in CN(C)C=O): 371 nm
emission maximum (in Cc1ccccc1): 350 nm
emission maximum (in ClC(Cl)Cl): 369 nm
emission maximum (in Clc1ccccc1): 364 nm

emission maximum (in C1CCCCC1): 323.21 nm
Compound: COc1ccc(OC)cc1

emission maximum (in C1CCOC1): 493 nm
Compound: CCCCCCCCCCOC(=O)c1ccc2c3ccc(C(=O)OCCCCCCCCCC)c4c(C(=O)OCCCCCCCCCC)cc5[nH]c6cc(C(=O)OCCCCCCCCCC)c1c2c6c5c43

emission maximum (in C1CCOC1): 576 nm
emission maximum (in CC#N): 613 nm
emission maximum (in CCCCCC): 653 nm
emission maximum (in CCO): 610 nm
emission maximum (in CCOC(C)=O): 571 nm
emission maximum (in CS(C)=O): 631 nm
emission maximum (in ClCCl): 578 nm
emission maximum (in O): 674 nm
Compound: CCCCCCCCCCCCOc1cc2cc(N(C)C)ccc2cc1C=C(C#N)C#N

emission maximum (in CCCCCC): 387 nm
emission maximum (in CCO): 391 nm
emission maximum (in CCOC(C)=O): 391 nm
emission maximum (in ClCCl): 395 nm
Compound: Cc1ccc(C#Cc2ccc3ccc4cccc5ccc2c3c45)cc1

emission maximum (in C1CCCCC1): 449 nm
emission maximum (in C1CCOC1): 498 nm
emission maximum (in CC#N): 543 nm
emission maximum (in CS(C)=O): 547 nm
emission maximum (in ClCCl): 520 nm
Compound: C(=C\c1ncc2ccccc2n1)/c1ccc(N(c2ccccc2)c2ccccc2)cc1

Compound: Oc1ccccc1-c1nc2c3cccnc3c3ncccc3c2n1-c1ccccc1
emission maximum (in Cc1ccccc1): 379 nm

emission maximum (in ClC(Cl)Cl): 670 nm
Compound: Cc1ccc(N(c2ccc(C)cc2)c2ccc(-c3ccc(C=C(C#N)C#N)s3)cc2)cc1

Compound: COCCC1=Cc2nc1ccc1[nH]c(cc1CCOC)c1nc(c(N)cc3[nH]c2cc3CCOC)C(CCOC)=C1
emission maximum (in Cc1ccccc1): 748 nm

emission maximum (in ClCCl): 468 nm
Compound: Cc1cccc(C)c1N1C(c2ccccc2)=Cc2ccc3ccccc3[n+]2[B-]1(F)F

Compound: O=C1c2ccccc2C2=Cc3ccc4ccccc4[n+]3[B-](F)(F)N12
emission maximum (in CCO): 465 nm
emission maximum (in Cc1ccccc1): 474 nm
emission maximum (in ClCCl): 464 nm

emission maximum (in C1CCCCC1): 382 nm
emission maximum (in C1COCCO1): 394 nm
emission maximum (in CC#N): 398 nm
emission maximum (in CC(C)(C)O): 405 nm
emission maximum (in CC(C)O): 404 nm
emission maximum (in CCCCCC): 382 nm
emission maximum (in CCCCO): 405 nm
emission maximum (in CCOC(C)=O): 395 nm
emission maximum (in CN(C)C=O): 398 nm
emission maximum (in CO): 406 nm
emission maximum (in ClCCl): 394 nm
emission maximum (in O): 410 nm
Compound: O=C1Nc2ccccc2/C1=C/C(=O)c1ccc(Cl)cc1

emission maximum (in ClC(Cl)Cl): 416 nm
Compound: CCc1cc(CC)cc(-n2c3ccccc3c3cc4c(cc32)c2ccccc2n4-c2cc(CC)cc(CC)c2)c1

emission maximum (in ClCCl): 456 nm
Compound: COc1cc(C(=O)c2c(C)c3ccc4cccc5c6cccc7ccc2c(c76)c3c45)cc(OC)c1OC

emission maximum (in CC#N): 491 nm
Compound: C(=C\c1nc(-c2ccccc2)c2ccccn12)/c1nc(-c2ccccc2)c2ccccn12

emission maximum (in C1CCCCC1): 381 nm
Compound: CCC(C)(C)c1ccc2c(c1)C(CC)(CC)c1cc(-c3ccc(-c4ccc5c(c4)C(CC)(CC)c4cc(C(C)(C)CC)ccc4-5)cc3)ccc1-2

emission maximum (in C1CCCCC1): 425.81 nm
emission maximum (in CCCCCO): 442.64 nm
emission maximum (in CCCCO): 446.26 nm
emission maximum (in CCCO): 443.26 nm
emission maximum (in CCO): 447.14 nm
emission maximum (in CO): 449.43 nm
Compound: ClC(Cl)=C1c2ccccc2C(C2(Cl)c3ccccc3C(=C(Cl)Cl)c3ccccc32)c2ccccc21 (stereo not drawn)
